Patent US20220195666A1, “USE OF A PLURALITY OF SALT IONIC LIQUIDS IN THE PRETREATMENT OF BIOMASS” (priority 2020, published 2022)

Assay: Thermal gravimetric analysis of the ILs and DSILs
Type: physicochemical
Conditions: TGA under nitrogen, 10° C./min
Protocol: Thermal behavior was determined using a Mettler Toledo Stare TGA/DSC1 unit (Mettler Toledo, Leicester, UK) under nitrogen. Samples between 3 and 10 mg were placed in alumina crucibles (70 μL) and heated from room temperature to 75° C. at a heating rate of 10° C./min. An isotherm at 75° C. was maintained for 30 min to eliminate all volatiles, if any. After the isothermal step, the temperature was ramped to 800° C. at a heating rate of 10° C./min. The data was analyzed using STARe Evaluation software.

Compound | T5% (decomposition temperature of 5% sample) [°C] | T50% (decomposition temperature of 50% sample) [°C]
CC(=O)[O-].C[N+](C)(C)CCO [[Ch][Ace], cholinium acetate] | 173.1 | 211.4
C[N+](C)(C)CCO.NCCCC[C@H](N)C(=O)[O-] [[Ch][Lys], cholinium lysinate] | 155.9 | 218.1
CCCCCCCC(=O)[O-].C[N+](C)(C)CCO [[Ch][Oct], cholinium octanoate] | 180.7 | 209.5
CCCCCCCCCCCCCCCC(=O)[O-].C[N+](C)(C)CCO [[Ch][Pal], cholinium palmitate] | 177.7 | 225.3
